Measurements: patent US20150086655A1, “Morinda Citrifolia Juice Formulations Comprising Iridoids” (priority 2013, published 2015)

Tests used:
E. coli PQ37 [1] = experiment: Primary DNA damage test (SOS-chromotest); assay type: cell-based; settings: all concentrations tested (7.81-1000 μg mL^−1)
Experimental: The SOS-chromotest in E. coli PQ37 was used to determine the potential for DAA and AA to induce primary DNA damage. This test was carried out according to the previously developed method (Fish et al., 1987). […] E. coli PQ37 was incubated in LB medium in a 96-well plate at 37° C. in the presence of DAA or AA for 2 hours. The DAA and AA concentrations tested were 7.81, 15.6, 31.2, 62.5, 125, 250, 500, and 1000 μg mL^−1. Samples were evaluated in triplicate. […] Induction factors less than two indicate an absence of genotoxic activity.

E. coli PQ37 [2] = assay type: cell-based; settings: 250 ug mL^−1 iridoid plus 1.25 ug mL^−1 4NQO
Experimental: The SOS-chromotest in E. coli PQ37 was used to determine the potential for iridoids in noni fruit from French Polynesia to prevent primary DNA damage. E. coli PQ37 was incubated at 37° C. in the presence of deacetylasperulosidic acid and asperulosidic acid at a concentration of 250 ug mL^−1 in a 96-well plate. Replicate samples were evaluated.

[3] = Thermal stability of DAA under pasteurization conditions (HPLC); assay type: physicochemical; settings: 90° C. at pH 3.3 for one minute
Experimental: Tahitian noni fruit puree as used in this example is the mashed whole fruit, excluding seeds and pericarp. The fruits were originally collected from the Tahitian Islands. One gram of the puree was diluted with 5 mL of H2O-MeOH (1:1) and mixed thoroughly. The solution was then filtered through a nylon microfilter (0.45-μm pore size); the solution was collected into a 5 mL volumetric flask for HPLC analysis. Four batches of noni puree were analyzed in the experiments. Voucher specimens of the noni fruit puree are deposited in our lab. To test iridoid stability, a DAA solution of 0.5 mg/mL was prepared with MeOH. This solution was heated in a water-bath at 90° C. for 1 min, cooled to room temperature, and analyzed by HPLC.
Noni fruit juice is usually subjected to heat pasteurization during commercial processing. Pasteurization is usually employed in noni industry, i.e., heating up to 87.7° C. for several seconds. In this study, the stability of DAA was conducted. DAA was exposed to 90° C. at pH 3.3 for one minute to determine its thermal stability at acidic conditions.

CC(=O)OCC1=C[C@H](O)[C@@H]2C(C(=O)O)=CO[C@@H](O[C@@H]3O[C@H](CO)[C@@H](O)[C@H](O)[C@H]3O)[C@H]12 [AA, asperulosidic acid]
induction of SOS repair versus blank (E. coli PQ37 [1]): did not induce any SOS repair

O=C(O)C1=CO[C@@H](O[C@@H]2O[C@H](CO)[C@@H](O)[C@H](O)[C@H]2O)[C@@H]2C(CO)=C[C@H](O)[C@H]12 [DAA, deacetylasperulosidic acid]
induction factors (mean±standard deviation) (E. coli PQ37 [2]): 0.98±0.02
induction of SOS repair versus blank (E. coli PQ37 [1]): did not induce any SOS repair
DAA content before and after heating (thermal stability) [3]: no difference in the DAA contents before and after heating
